Consider 18 compounds from US20190152962A1, “CYCLOPROPYL DERIVATIVES AS ROR-GAMMA MODULATORS” (CADILA HEALTHCARE LIMITED, priority 2016, published 2019).

In general, IC50 refers to the point on the concentration scale where inhibition reaches its midpoint.

In one test the target is T1, full length human RORγt (Homo sapiens, UniProt P51449).
T1 construct: full length human RORγt together in COS-7 cells; expressed in transfected cells; host or cells: COS-7
T1 sequence (P51449 1-497 isoform P51449-2): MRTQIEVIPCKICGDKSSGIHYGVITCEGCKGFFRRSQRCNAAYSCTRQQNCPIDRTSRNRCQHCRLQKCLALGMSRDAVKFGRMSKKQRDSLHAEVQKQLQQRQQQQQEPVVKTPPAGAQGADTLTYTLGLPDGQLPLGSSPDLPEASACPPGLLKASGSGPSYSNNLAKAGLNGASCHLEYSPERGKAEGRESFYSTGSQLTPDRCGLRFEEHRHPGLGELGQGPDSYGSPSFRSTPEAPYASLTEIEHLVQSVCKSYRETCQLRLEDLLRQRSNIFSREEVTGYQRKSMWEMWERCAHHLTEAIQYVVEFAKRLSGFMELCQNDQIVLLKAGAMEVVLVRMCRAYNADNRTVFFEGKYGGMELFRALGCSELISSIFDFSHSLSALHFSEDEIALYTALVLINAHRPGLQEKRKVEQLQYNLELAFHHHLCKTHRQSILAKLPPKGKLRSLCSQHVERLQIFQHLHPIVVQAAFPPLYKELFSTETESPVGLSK
Briefly: 5×RORE based luciferase assay. The following applies: COS-7 cells transfected with 5×RORE-Luc and hRORγt, 18-20 h treatment. The class given is cell-based. As for the experimental part: Human RORγt (hRORγt) inhibitors were screened in RORE (RORγt Response Element) based Luciferase assay by transient transfection of 5×RORE (5 tandem repeats of RORγt Response Element) and full length human RORγt together in COS-7 cells. COS-7 cells were maintained as monolayer in complete DMEM (High Glucose) medium in presence of 2 mM Glutamin and 1× Sodium Pyruvate. Day before transfection, 15000 cells were seeded in 96 well cell culture plate in 100 μl antibiotic free medium and incubated at 37° C. in 5% CO2 containing humidified chamber O/N. Prior to transfection, cells were fed with fresh complete growth medium and incubated until the addition of transfection complex. Transfection complex for the required numbers of wells were prepared from pGL2-promoter-5×RORE-Luc plasmid, pcDNA3.1 (+)-hRORγt expression plasmid, pβ-GAL plasmid (transfection control), and Lipofectamine 3000 (Invitrogen). 50 μl of transfection complex were added in 100 μl of complete medium to respective wells, mixed gently and plate was incubated for 5-6 h at 37° C. in 5% CO2 containing humidified chamber. After 5 h of transfection, content of the wells were aspirated and cells were treated with increasing concentration of RORγt inverse agonist in medium devoid of serum with a final DMSO concentration of 0.2% for 18-20 h at 37° C. in 5% CO2 containing humidified chamber. Next day, cells were lysed and the lysates were assayed for luciferase and β-GAL activity using Promega's luciferase assay system and an in-house made β-GAL assay buffer respectively. Luciferase signals were normalized with β-GAL and % activity was determined with respect to that of 10 nM control ligand.
IC50 of selected compounds were then determined by nonlinear regression analysis of % activity, plotted against compound concentration (Table 4).

In test [1] the test system is secreted IL-17 in peripheral blood mononuclear cells (PBMCs). Kind of test: Human IL-17 inhibition assay. Conditions: PBMC, anti-CD3/anti-CD28, 72 h, read-out: IL17 IC50. The class given is cell-based. As for the experimental part:
Peripheral blood mononuclear cells (PBMCs) were isolated from healthy volunteers and subjected to T cell polarization assay. Two million PBMCs were placed on anti-CD3 (Biolegend, US) coated 96-well plates and 1 μg/mL of anti-CD28 (Biolegend, US) was added along with RORγt inhibitors or the vehicle control and incubated at 37° C. and 5% CO2 for 72 h. At the end of incubation time, the supernatant was collected and analyzed for secreted IL-17 using sandwich enzyme immunoassay (Mabtech AB, Sweden). The results were analyzed using Graphpad Prism and the half-maximal inhibitory concentrations (IC50) of the test compounds were derived (Table 4).

`CCS(=O)(=O)c1ccc(CC(=O)Nc2cc(Cl)c(C3(c4noc(-c5ccc(Cl)cc5Cl)n4)CC3)c(Cl)c2)nc1` [Example 49, N-(3,5-dichloro-4-(1-(5-(2,4-dichlorophenyl)-1,2,4-oxadiazol-3-yl)cyclopropyl)phenyl)-2-(5-(ethylsulfonyl)pyridin-2-yl)acetamide]: the results for the IC50 (against full length human RORγt; in test [1]) were 4.7 nM and 17 nM, respectively.
With `CCS(=O)(=O)c1ccc(CC(=O)Nc2cc(Cl)c(C3(c4noc(-c5ccc(Cl)cc5)n4)CC3)c(Cl)c2)nc1` [Example 50, N-(3,5-dichloro-4-(1-(5-(4-chlorophenyl)-1,2,4-oxadiazol-3-yl)cyclopropyl)phenyl)-2-(5-(ethylsulfonyl)pyridin-2-yl)acetamide], the IC50 at full length human RORγt was 14.5 nM; in test [1], 30 nM.
In the same order, the values of `CCS(=O)(=O)c1ccc(CC(=O)Nc2cc(Cl)c(C3(c4noc(-c5cccc(Cl)c5)n4)CC3)c(Cl)c2)nc1` [Example 51, N-(3,5-dichloro-4-(1-(5-(3-chlorophenyl)-1,2,4-oxadiazol-3-yl)cyclopropyl)phenyl)-2-(5-(ethylsulfonyl)pyridin-2-yl)acetamide] are 12.1 nM and 16 nM.
In the same order, the values of `CCS(=O)(=O)c1ccc(CC(=O)Nc2cc(Cl)c(C3(c4noc(-c5ccc(C#N)cc5)n4)CC3)c(Cl)c2)nc1` [Example 53, N-(3,5-dichloro-4-(1-(5-(4-cyanophenyl)-1,2,4-oxadiazol-3-yl)cyclopropyl)phenyl)-2-(5-(ethylsulfonyl)pyridin-2-yl)acetamide] are 1.9 nM and 48 nM.
In the same order, the values of `CCS(=O)(=O)c1ccc(CC(=O)Nc2cc(Cl)c(C3(c4nc5ccc(F)cc5o4)CC3)c(Cl)c2)nc1` [Example 58, N-(3,5-dichloro-4-(1-(6-fluorobenzo[d]oxazol-2-yl)cyclopropyl)phenyl)-2-(5-(ethylsulfonyl)pyridin-2-yl)acetamide] are 3.4 nM and 23.3 nM.
As to `CCS(=N)(=O)c1ccc(CC(=O)Nc2cc(Cl)c(C3(c4noc(-c5ccc(F)cc5)n4)CC3)c(Cl)c2)cc1` (stereo not drawn) [Example 61, N-(3,5-dichloro-4-(1-(5-(4-fluorophenyl)-1,2,4-oxadiazol-3-yl)cyclopropyl)phenyl)-2-(4-(ethylsulfonimidoyl)phenyl)acetamide], the figures for the IC50 (against full length human RORγt; in test [1]) were 9.2 nM and 35 nM, respectively.
In the same order, the values of `O=C(Cc1ccc(S(=O)(=O)NC2CC2)cc1)Nc1cc(Cl)c(C2(c3noc(-c4ccc(F)cc4)n3)CC2)c(Cl)c1` [Example 63, 2-(4-(N-cyclopropylsulfamoyl)phenyl)-N-(3,5-dichloro-4-(1-(5-(4-fluorophenyl)-1,2,4-oxadiazol-3-yl)cyclopropyl)phenyl)acetamide] are 11 nM and 18 nM.
In the same order, the values of `O=C(Cc1ccc(S(=O)(=O)NC2CC2)cc1)Nc1cc(Cl)c(C2(c3noc(-c4ccc(C(F)(F)F)cc4)n3)CC2)c(Cl)c1` [Example 64, 2-(4-(N-cyclopropylsulfamoyl)phenyl)-N-(3,5-dichloro-4-(1-(5-(4-(trifluoromethyl)phenyl)-1,2,4-oxadiazol-3-yl)cyclopropyl)phenyl)acetamide] are 15.9 nM and 63 nM.
`O=C(Cc1ccc(S(=O)(=O)NC2CC2)cc1)Nc1cc(Cl)c(C2(c3nc4ccc(F)cc4o3)CC2)c(Cl)c1` [Example 65, 2-(4-(N-cyclopropylsulfamoyl)phenyl)-N-(3,5-dichloro-4-(1-(6-fluorobenzo[d]oxazol-2-yl)cyclopropyl)phenyl)acetamide]: the results for the IC50 (at full length human RORγt; in test [1]) were 2.4 nM and 6 nM, respectively.
In the same order, the values of `CCS(=O)(=O)c1ccc(CC(=O)Nc2cc(Cl)c(C3(c4noc(-c5ccc(F)c(F)c5)n4)CC3)c(Cl)c2)cn1` [Example 68, N-(3,5-dichloro-4-(1-(5-(3,4-difluorophenyl)-1,2,4-oxadiazol-3-yl)cyclopropyl)phenyl)-2-(6-(ethylsulfonyl)pyridin-3-yl)acetamide] are 9.6 nM and 42.7 nM.
For `CCS(=O)(=O)c1ccc(CC(=O)Nc2cc(Cl)c(C3(c4noc(-c5ccc(F)cc5F)n4)CC3)c(Cl)c2)cn1` [Example 69, N-(3,5-dichloro-4-(1-(5-(2,4-difluorophenyl)-1,2,4-oxadiazol-3-yl)cyclopropyl)phenyl)-2-(6-(ethylsulfonyl)pyridin-3-yl)acetamide], in that order: 6.4 nM and 22.4 nM.
For `CCS(=O)(=O)c1ccc(CC(=O)Nc2cc(Cl)c(C3(c4noc(-c5ccc(F)c(Cl)c5)n4)CC3)c(Cl)c2)cn1` [Example 70, N-(3,5-dichloro-4-(1-(5-(3-chloro-4-fluorophenyl)-1,2,4-oxadiazol-3-yl)cyclopropyl)phenyl)-2-(6-(ethylsulfonyl)pyridin-3-yl)acetamide], in that order: 17 nM and 22 nM.
As for `CCS(=O)(=O)c1ccc(CC(=O)Nc2cc(Cl)c(C3(c4noc(-c5ccc(Cl)c(Cl)c5)n4)CC3)c(Cl)c2)cn1` [Example 71, N-(3,5-dichloro-4-(1-(5-(3,4-dichlorophenyl)-1,2,4-oxadiazol-3-yl)cyclopropyl)phenyl)-2-(6-(ethylsulfonyl)pyridin-3-yl)acetamide], the IC50 at full length human RORγt is 15.7 nM; in test [1] it was 32 nM.
For `CCS(=O)(=O)c1ccc(CC(=O)Nc2cc(Cl)c(C3(c4noc(-c5ccc(Cl)cc5)n4)CC3)c(Cl)c2)cn1` [Example 72, N-(3,5-dichloro-4-(1-(5-(4-chlorophenyl)-1,2,4-oxadiazol-3-yl)cyclopropyl)phenyl)-2-(6-(ethylsulfonyl)pyridin-3-yl)acetamide], in that order: 20 nM and 20.8 nM.
In the same order, the values of `CCS(=O)(=O)c1ccc(CC(=O)Nc2cc(Cl)c(C3(c4noc(-c5ccc(C#N)cc5)n4)CC3)c(Cl)c2)cn1` [Example 73, N-(3,5-dichloro-4-(1-(5-(4-cyanophenyl)-1,2,4-oxadiazol-3-yl)cyclopropyl)phenyl)-2-(6-(ethylsulfonyl)pyridin-3-yl)acetamide] are 17.6 nM and 23.4 nM.
As to `CCS(=O)(=O)c1ccc(CC(=O)Nc2cc(Cl)c(C3(c4nc5ccc(F)cc5o4)CC3)c(Cl)c2)cn1` [Example 74, N-(3,5-dichloro-4-(1-(6-fluorobenzo[d]oxazol-2-yl)cyclopropyl)phenyl)-2-(6-(ethylsulfonyl)pyridin-3-yl)acetamide], the IC50 worked out at 23.9 nM at full length human RORγt and 23.8 nM in test [1].
Regarding `CCS(=O)(=O)c1cnc(CC(=O)Nc2cc(Cl)c(C3(c4nc5ccc(F)cc5o4)CC3)c(Cl)c2)cn1` [Example 78, N-(3,5-dichloro-4-(1-(6-fluorobenzo[d]oxazol-2-yl)cyclopropyl)phenyl)-2-(5-(ethylsulfonyl)pyrazin-2-yl)acetamide], the half-maximal inhibitory concentration (IC50) against full length human RORγt came to 7.9 nM; in test [1] it was 47.3 nM.
In the same order, the values of `CCS(=O)(=O)c1ccc(CC(=O)Nc2cc(Cl)c(C3(c4nnc(-c5ccc(F)cc5)o4)CC3)c(Cl)c2)cc1` [Example 79, N-(3,5-dichloro-4-(1-(5-(4-fluorophenyl)-1,3,4-oxadiazol-2-yl)cyclopropyl)phenyl)-2-(4-(ethylsulfonyl)phenyl)acetamide] are 12.3 nM and 39 nM.
